Results: article PMC3734177, “Design, Synthesis, Evaluation and Thermodynamics of 1-Substituted Pyridylimidazo[1,5-a]Pyridine Derivatives as Cysteine Protease Inhibitors” (PLoS ONE, 2013)
Converted amounts (≈) assume the structure as drawn. “And” between values parts separate entries of the source, which are not always exact repeats. Identical values can stand only once. Like-named read-outs stand apart in the source and are kept apart here.

Experiments:
papain [1] = target: T1, papain (Carica papaya, UniProt P00784); experiment: Cysteine protease inhibitory activity, papain with Bz-DL-Arg-pNA substrate; assay type: biochemical; details: for Type of inhibition: Lineweaver–Burk plot; for IC50: papain
T1 construct: To solutions of active papain (final concentration: 0.05 mM); purchased Sigma Chemical Co., St. Louis, MO, USA
T1 sequence (P00784 134-345): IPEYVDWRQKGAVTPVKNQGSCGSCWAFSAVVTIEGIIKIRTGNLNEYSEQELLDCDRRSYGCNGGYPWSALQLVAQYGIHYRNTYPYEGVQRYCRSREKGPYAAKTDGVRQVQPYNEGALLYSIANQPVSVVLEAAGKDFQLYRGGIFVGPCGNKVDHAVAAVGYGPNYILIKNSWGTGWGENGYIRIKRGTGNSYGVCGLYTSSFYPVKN
Protocol: The capacity of the 1-pyridylimidazo[1,5-a]pyridine derivatives to inhibit cysteine proteases was tested using papain as the model enzyme. The proteolytic activity of the reaction mixtures was determined using Bz-DL-Arg-pNA as the chromogenic substrate. To solutions of active papain (final concentration: 0.05 mM) were added concentrated solutions of the different derivatives to final concentrations of 0.2 mM. […] The same procedure was used at 32°C and 42°C for thermodynamics studies. The kinetic parameters for the substrate hydrolysis were determined by measuring the initial rate of enzymatic activity. The inhibition constant Ki was determined by Dixon method and also by the Lineweaver–Burk equation. The Km value was calculated from the double-reciprocal equation by fitting the data into the computer software Origin 6.1. The Lineweaver–Burk plot was used to determine the types of inhibition. For the kinetic analysis and rate constant determinations, the assays were carried out in triplicate, and the average value was considered throughout this work.

papain [2] = target: T1, papain; experiment: Thermodynamics analysis of papain inhibition (Van't Hoff); assay type: biochemical; details: Value at 37°C; for ΔH (enthalpy change): Van't Hoff plot
Protocol: Free energy changes of inhibition of papain against 1- substituted pyridylimidazo[1,5-a] pyridine derivatives (ΔG) were determined by the equation, [drawing 1] (1)
Temperature dependence of the inhibition constants was used to determine the thermodynamic parameters. Changes in enthalpy (ΔH) were determined from the Van’t Hoff plots by using the equation, [drawing 2] (2)
Where ΔH is enthalpy change, R is gas constant, ΔS is entropy change and T is the absolute temperature. The entropy change was obtained from the equation, [drawing 3] (3)

[3] = system: Bacillus spp. (ATCC-14593); experiment: MIC, micro dilution method; assay type: cell-based; details: ATCC14593; Bacillus sp.
Protocol: (§1) The disk diffusion method was used for the preliminary antibacterial evaluation of 1-pyridylimidazo[1,5-a]pyridine derivatives. The MIC50 of these derivatives, showing inhibition in the preliminary tests, were further determined by the microtitre plate technique using micro dilution method. In brief, the bacterial strains (S. aureus, P. vulgaris, Group D Streptococci, Bacillus sp., E. coli, P. aeruginosa and S. morganii)) were grown and diluted to 2×10^5 colony-forming units (CFU)/ml in sodium phosphate buffer (SPB) containing 0.03% Luria–Bertani (LB) broth. The synthesized derivatives were dissolved in DMSO and their serial dilution was performed in 50 µL of LB medium in 96-well microtitre plate to achieve the required concentrations (0.1–10 µg/ml) with bacterial inoculums (5×10^4 CFU per well). DMSO was taken as negative control and Ceftriaxone and clotrimazole were taken as positive control. After incubation at 37°C overnight, the MICs were taken as the lowest inhibitor concentration at which the bacterial growth was inhibited. The average of three values was calculated and that was the MIC for the test material and bacterial strain. […]

[4] = system: Escherichia coli (ATCC-25922); experiment: MIC, micro dilution method; assay type: cell-based; details: ATCC25922, E. coli
Protocol: as §1

[5] = system: Proteus vulgaris (ATCC-29905); experiment: MIC, micro dilution method; assay type: cell-based; details: ATCC29905, P. vulgaris
Protocol: as §1

[6] = system: Pseudomonas aeruginosa (ATCC-27853); experiment: MIC, micro dilution method; assay type: cell-based; details: ATCC27853
Protocol: as §1

[7] = system: Staphylococcus aureus (ATCC-25923); experiment: MIC, micro dilution method; assay type: cell-based; details: ATCC25923, S. aureus
Protocol: as §1

[8] = system: Group D Streptococci (ATCC-12959); experiment: MIC, micro dilution method; assay type: cell-based
Protocol: (§2) The disk diffusion method was used for the preliminary antibacterial evaluation of 1-pyridylimidazo[1,5-a]pyridine derivatives. The MIC50 of these derivatives, showing inhibition in the preliminary tests, were further determined by the microtitre plate technique using micro dilution method. In brief, the bacterial strains (S. aureus, P. vulgaris, Group D Streptococci, Bacillus sp., E. coli, P. aeruginosa and S. morganii)) were grown and diluted to 2×10^5 colony-forming units (CFU)/ml in sodium phosphate buffer (SPB) containing 0.03% Luria–Bertani (LB) broth. The synthesized derivatives were dissolved in DMSO and their serial dilution was performed in 50 µL of LB medium in 96-well microtitre plate to achieve the required concentrations (0.1–10 µg/ml) with bacterial inoculums (5×10^4 CFU per well). DMSO was taken as negative control and Ceftriaxone and clotrimazole were taken as positive control. After incubation at 37°C overnight, the MICs were taken as the lowest inhibitor concentration at which the bacterial growth was inhibited. The average of three values was calculated and that was the MIC for the test material and bacterial strain.
(§3) For the agar plate count method, 25 µL aliquots of bacteria at 1×10^5 CFU/ml in SPB containing 0.03% LB broth were incubated with 25 µL of diluted compounds for 2 h at 37°C. The mixtures of bacteria and compounds were serially diluted 10-fold with SPB and plated on LB plates that were incubated at 37°C overnight. Bacterial colonies were enumerated the following day.

[9] = system: Serratia morganii (ATCC- 31665); experiment: MIC, micro dilution method; assay type: cell-based; details: ATCC31665
Protocol: as §2, §3

[10] = system: Bacillus spp. (ATCC-14593); experiment: MBC, sub cultivation from MIC plate; assay type: cell-based; details: ATCC14593, Bacillus sp.
Protocol: (§4) After having determined the MICs, bacterial strains from the wells of the microtitre plate with no visible bacterial growth were removed for serial sub cultivation of 2 µl into another new microtitre plate containing 100 µl of broth per well and further incubated for 24 h. The lowest concentration with no visible growth was defined as MBC [28], indicating 99.5% killing of the original inoculum. The absorbance of each well was measured at a wavelength of 620 nm by Microplate Manager 4.0 (Bio-Rad laboratories) and compared with a blank. Solvent (DMSO) was used as a negative control. Three replicates were done for each compound and experiment was repeated two times.

[11] = system: Escherichia coli (ATCC-25922); experiment: MBC, sub cultivation from MIC plate; assay type: cell-based; details: ATCC25922, E. coli
Protocol: as §4

[12] = system: Group D Streptococci (ATCC-12959); experiment: MBC, sub cultivation from MIC plate; assay type: cell-based
Protocol: as §4

[13] = system: Proteus vulgaris (ATCC-29905); experiment: MBC, sub cultivation from MIC plate; assay type: cell-based; details: ATCC29905, P. vulgaris
Protocol: as §4

[14] = system: Pseudomonas aeruginosa (ATCC-27853); experiment: MBC, sub cultivation from MIC plate; assay type: cell-based
Protocol: as §4

[15] = system: Serratia morganii (ATCC- 31665); experiment: MBC, sub cultivation from MIC plate; assay type: cell-based
Protocol: as §4

[16] = system: Staphylococcus aureus (ATCC-25923); experiment: MBC, sub cultivation from MIC plate; assay type: cell-based; details: ATCC25923, S. aureus
Protocol: as §4

[17] = system: Bacillus spp. (ATCC-14593); experiment: MIC, micro dilution method; assay type: cell-based; details: ATCC14593; Bacillus sp.; remark: listed apart in the source

SMILES	Ki (papain [1]; 32°C) [µM]	Ki (papain [1]; 37°C) [µM]	Ki (papain [1]; 42°C) [µM]	Type of inhibition (papain [1])	IC50 (papain [1]) [µM]	ΔG (free energy of binding) (papain [2])	ΔS (entropy change) (papain [2])	MIC50 [3] [µg/mL]	MIC50 [4] [µg/mL]	MIC90 [4] [µg/mL]	MIC50 [5] [µg/mL]	MIC90 [5] [µg/mL]	MIC50 [6] [µg/mL]	MIC90 [6] [µg/mL]	MIC50 [7] [µg/mL]	MIC90 [7] [µg/mL]	MBC ([10]; read-out: MBC50) [µg/mL]	MBC ([10]; read-out: MBC90) [µg/mL]	MBC ([11]; read-out: MBC50) [µg/mL]	MBC ([11]; read-out: MBC90) [µg/mL]	other results
Oc1ccccc1-c1nc(-c2ccccn2)c2ccccn12 [Compound 3a, 1-(2-pyridyl)-3-(2-hydroxyphenyl) imidazo[1,5-a]pyridine]	14.3	13.7	11.1	Non- Competitive	13.4	−6.86 Kcalmol^−1 and −6.86(±0.30) Kcalmol^−1	72.92 (±2.33) Jmol-K^−1	0.6 (≈ 2.09 µM)	0.6 (≈ 2.09 µM)	0.99 (≈ 3.45 µM)	0.8 (≈ 2.78 µM)	1.6 (≈ 5.57 µM)	0.6 (≈ 2.09 µM)	1.09 (≈ 3.79 µM)	0.9 (≈ 3.13 µM)	1.7 (≈ 5.92 µM)	1.2 (≈ 4.18 µM)	2.3 (≈ 8 µM)	1.3 (≈ 4.52 µM)	2.1 (≈ 7.31 µM)	ΔH (enthalpy change) (papain [2]): −6.2(±0.88) KJmol^−1; MIC50 [8]: 0.7 µg/mL (≈ 2.44 µM); MIC90 [8]: 1.3 µg/mL (≈ 4.52 µM); MIC50 [9]: 0.8 µg/mL (≈ 2.78 µM); MIC90 [9]: 1.5 µg/mL (≈ 5.22 µM); MBC ([12]; read-out: MBC50): 1.3 µg/mL (≈ 4.52 µM); MBC ([12]; read-out: MBC90): 2.5 µg/mL (≈ 8.7 µM); MBC ([13]; read-out: MBC50): 1.6 µg/mL (≈ 5.57 µM); MBC ([13]; read-out: MBC90): 3.1 µg/mL (≈ 10.8 µM); MBC ([14]; ATCC27853, read-out: MBC50): 1.1 µg/mL (≈ 3.83 µM); MBC ([14]; ATCC27853, read-out: MBC90): 1.9 µg/mL (≈ 6.61 µM); MBC ([15]; ATCC31665, read-out: MBC50): 1.6 µg/mL (≈ 5.57 µM); MBC ([15]; ATCC31665, read-out: MBC90): 3.1 µg/mL (≈ 10.8 µM); MBC ([16]; read-out: MBC50): 1.8 µg/mL (≈ 6.26 µM); MBC ([16]; read-out: MBC90): 3.5 µg/mL (≈ 12.2 µM); MIC90 [17]: 1.2 µg/mL (≈ 4.18 µM)
COc1ccc(-c2nc(-c3ccccn3)c3ccccn23)cc1 [Compound 3b, 1-(2-pyridyl)-3-(4-methoxyphenyl) imidazo[1,5-a]pyridine]	26.2	23.2	21.1	Competitive	21.2	−6.55 Kcalmol^−1 and −6.55(±0.33) Kcalmol^−1	71.4 (±2.46) Jmol-K^−1	0.9 (≈ 2.99 µM)	1 (≈ 3.32 µM)	1.8 (≈ 5.97 µM)	0.8 (≈ 2.65 µM)	1.5 (≈ 4.98 µM)	1 (≈ 3.32 µM)	1.8 (≈ 5.97 µM)	1 (≈ 3.32 µM)	1.9 (≈ 6.3 µM)	1.7 (≈ 5.64 µM)	3.2 (≈ 10.6 µM)	1.9 (≈ 6.3 µM)	2.9 (≈ 9.62 µM)	ΔH (enthalpy change) (papain [2]): −5.3(±0.80) KJmol^−1; MBC ([13]; read-out: MBC50): 1.6 µg/mL (≈ 5.31 µM); MBC ([13]; read-out: MBC90): 3.2 µg/mL (≈ 10.6 µM); MBC ([14]; ATCC27853, read-out: MBC50): 2.1 µg/mL (≈ 6.97 µM); MBC ([14]; ATCC27853, read-out: MBC90): 4 µg/mL (≈ 13.3 µM); MBC ([16]; read-out: MBC50): 2.3 µg/mL (≈ 7.63 µM); MBC ([16]; read-out: MBC90): 4.5 µg/mL (≈ 14.9 µM); MIC90 [17]: 1.7 µg/mL (≈ 5.64 µM)
Clc1ccccc1-c1nc(-c2ccccn2)c2ccccn12 [Compound 3c, 1-(2-pyridyl)-3-(2-chlorophenyl) imidazo[1,5-a]pyridine]	94.1	90	85.6	Non -Competitive	94.5	−5.71 Kcalmol^−1 and −5.71(±0.27) Kcalmol^−1	69.88 (±2.65) Jmol-K^−1	0.9 (≈ 2.94 µM)	0.6 (≈ 1.96 µM)	1.1 (≈ 3.6 µM)	1 (≈ 3.27 µM)	1.9 (≈ 6.21 µM)	1.2 (≈ 3.92 µM)	2.2 (≈ 7.19 µM)	1.2 (≈ 3.92 µM)	2.4 (≈ 7.85 µM)	1.9 (≈ 6.21 µM)	3.8 (≈ 12.4 µM)	1.2 (≈ 3.92 µM)	2.3 (≈ 7.52 µM)	MIC50 [8]: 0.9 µg/mL (≈ 2.94 µM); MIC90 [8]: 1.7 µg/mL (≈ 5.56 µM); MIC50 [9]: 1 µg/mL (≈ 3.27 µM); MIC90 [9]: 1.9 µg/mL (≈ 6.21 µM); MBC ([12]; read-out: MBC50): 1.8 µg/mL (≈ 5.89 µM); MBC ([12]; read-out: MBC90): 3.4 µg/mL (≈ 11.1 µM); MBC ([13]; read-out: MBC50): 2.2 µg/mL (≈ 7.19 µM); MBC ([13]; read-out: MBC90): 4.3 µg/mL (≈ 14.1 µM); MBC ([14]; ATCC27853, read-out: MBC50): 2.4 µg/mL (≈ 7.85 µM); MBC ([14]; ATCC27853, read-out: MBC90): 4 µg/mL (≈ 13.1 µM); MBC ([15]; ATCC31665, read-out: MBC50): 2.1 µg/mL (≈ 6.87 µM); MBC ([15]; ATCC31665, read-out: MBC90): 4.1 µg/mL (≈ 13.4 µM); MBC ([16]; read-out: MBC50): 2.4 µg/mL (≈ 7.85 µM); MBC ([16]; read-out: MBC90): 4.7 µg/mL (≈ 15.4 µM); MIC90 [17]: 1.7 µg/mL (≈ 5.56 µM)
